Results taken from patent US20080076718A1, “Novel Proteasome Modulators” (priority 2003, published 2008).
Read-outs that look alike come from different tables or passages of the source. Square brackets hold non-standard residues; d marks the D form. Ends that are not written are not given here. Peptide text beside a SMILES is read from it. * marks the point of attachment. Biotin = O=C1N[C@H]2[C@H](CS[C@H]2CCCCC(=O)*)N1; Bpa = N[C@@H](Cc1ccc(C(=O)c2ccccc2)cc1)C(=O)O; Decanoyl = CCCCCCCCCC(=O)*; Octanoyl = CCCCCCCC(=O)*; Ava = NCCCCC(=O)O

Tests used:
Assay type in all cases: biochemical, yeast (Saccharomyces cerevisae)
[1] = molecular target: T1, yeast activated 20S proteasome (CT-L activity) (Saccharomyces cerevisiae, UniProt P23724+P30656); test: Inhibition of the CT-L (chymotrypsin-like) peptidase activity of the activated 20S proteasome, substrate Suc-LLVY-amc; settings: for Inhibitory effect of the lipopeptides on the CT-L activity: yeast activated 20S proteasome, after treatment with 35 μM of lipopeptide (17.5 μM for C18/TVTYKF); for Increase of the inhibitory capacity compared with the unmodified peptide (factor): lipopeptide versus corresponding peptide, CT-L activity of activated 20S proteasome
T1 construct: The yeast (Saccharomyces cerevisae) 26S and 20S proteasomes were purified according to the protocol described in; made in house; host or cells: Saccharomyces cerevisiae (native complex purified from yeast by the cited Leggett et al. 2002 protocol)
Description: (§1) The yeast (Saccharomyces cerevisae) 26S and 20S proteasomes were purified according to the protocol described in: LEGGETT et al. (2002) Molecular Cell, 10, pp 495-507.
(§2) The peptidase activities were determined using the fluorogenic substrates Suc-LLVY-amc (CT-L), Z-LLE-βNA (PA) and Boc-LRR-amc (T-L), provided by the company Bachem (Voisins-le-Bretonneux, France).
(§3) The peptidase activities of the yeast and Xenopus 26S proteasomes and those of the yeast 20S proteasome, latent and activated, were determined under the conditions described in Table II.
(§4) The compounds studied are solubilized in the buffer (peptides, pseudopeptides) or in DMSO (lipopeptides, photoactivatable peptides). The enzyme is preincubated (15 min at 30° C.) in the corresponding buffer (Table II), in the presence of the inhibitor. For the cases where the inhibitor is solubilized in DMSO (lipopeptides, photoactivatable peptides), the control without inhibitor contains an amount of DMSO identical to that of the assays with inhibitor (3.5% v/v). The reaction is triggered by adding the substrate. It is continuously monitored for 30 min at 30° C. The initial rates of the assays with inhibitors (calculated from the experimental points) are compared with those of the controls. The results presented were obtained by calculating the mean of at least two independent assays. The variability is less than 10%.
(§5) The IC50 parameter corresponds to the concentration of inhibitor that results in a 50% loss of enzymatic activity.
(§6) The enzyme is preincubated in the presence of increasing concentrations of inhibitor. The reaction is triggered by adding the substrate (see paragraph “Detection and study of the inhibitory effects”). The percentage inhibition is calculated from equation 1.
(§7) The experimental points describe the evolution of the inhibitory effect of the compound studied as a function of its concentration. As a general rule, they fit with the curve described by equation 2 in which [I] is the concentration of inhibitor
The mechanism of inhibition is determined by tracing the curve of the evolution of the V0/Vi ratio as a function of the concentration of inhibitor.

[2] = molecular target: T2, activated 20S proteasome (PA activity) (Saccharomyces cerevisiae, UniProt P25043+P38624); test: Inhibition of the post-acid (PA) peptidase activity of the activated 20S proteasome, substrate Z-LLE-βNA
T2 construct: The yeast (Saccharomyces cerevisae) 26S and 20S proteasomes were purified according to the protocol described in; made in house; host or cells: Saccharomyces cerevisiae (native complex purified from yeast by the cited Leggett et al. 2002 protocol)
Description: as §1, §2, §3, §4, §5, §6, §7

[3] = molecular target: T3, latent 20S proteasome (CT-L activity) (Saccharomyces cerevisiae, UniProt P23724+P30656); test: Activating effect on the CT-L activity of the latent 20S proteasome (activation factor fa); set-up: key: fa = initial rate with compound / initial rate of control (Va/V0); settings: fa = Va/V0, concentration not given
T3 construct: The yeast (Saccharomyces cerevisae) 26S and 20S proteasomes were purified according to the protocol described in; made in house; host or cells: Saccharomyces cerevisiae (native complex purified from yeast by the cited Leggett et al. 2002 protocol)
Description: as §1, §2, §3
(§8) The compounds studied are solubilized in the buffer or in DMSO. The enzyme is preincubated (15 minutes at 30° C.) in the corresponding buffer (Table II), in the presence of the molecule to be tested. When the molecule is solubilized in DMSO, the control (no addition molecule to be tested) contains an amount of DMSO identical to that of the assays(3.5% v/v). The reaction is triggered by adding the substrate. It is continuously monitored for 30 minutes at 30° C. The results presented were obtained by calculating the mean of at least two independent assays. An activation is characterized by an activity, after treatment with the molecule tested, of greater than 100%. The variability is less than 10%. The results are expressed by means of an activation factor fa equal to the ratio of the initial rate Va in the presence of the compound tested to the initial rate of the control V0.

[4] = molecular target: T4, latent 20S proteasome (T-L activity) (Saccharomyces cerevisiae, UniProt P25043+P25451); test: Activating effect on the T-L activity of the latent 20S proteasome (activation factor fa); settings: fa = Va/V0, concentration not given
T4 construct: The yeast (Saccharomyces cerevisae) 26S and 20S proteasomes were purified according to the protocol described in; made in house; host or cells: Saccharomyces cerevisiae (native complex purified from yeast by the cited Leggett et al. 2002 protocol)
Description: as §1, §2, §3, §8

[5] = activated 20S proteasome, read-out: CT-L activity: IC50

TITYKF [TITYKF, reference compound]
Mechanism of inhibition (kinetic analysis, V0/Vi versus inhibitor concentration) ([1]; activated 20S proteasome): parabolic kinetics
IC50 [1, 5]: 260 µM
IC50 [2]: 336 µM

CH3—(CH2)14—CO-TVTYKF
fa CT-L activity [3]: 2

CH3—(CH2)12—CO-TVTYKF [C14/TVTYKF]
Inhibitory effect of the lipopeptides on the CT-L activity [1]: 0%
fa CT-L activity [3]: 2

CCCCCCCC(=O)N[C@H](C(=O)N[C@H](C(=O)N[C@H](C(=O)N[C@@H](Cc1ccc(O)cc1)C(=O)N[C@@H](CCCCN)C(=O)N[C@@H](Cc1ccccc1)C(=O)O)[C@@H](C)O)C(C)C)[C@@H](C)O [C8/TVTYKF, CH3—(CH2)6—CO-TVTYKF] (Octanoyl-TVTYKF-OH; C-terminus assumed)
IC50 [1, 5]: ~35 µM
Increase of the inhibitory capacity compared with the unmodified peptide (factor) [1]: 17
Inhibitory effect of the lipopeptides on the CT-L activity [1]: 50%

CCCCCCCCCC(=O)N[C@H](C(=O)N[C@H](C(=O)N[C@H](C(=O)N[C@@H](Cc1ccccc1)C(=O)N[C@@H](CCCCN)C(=O)N[C@@H](Cc1ccccc1)C(=O)O)[C@@H](C)O)C(C)C)[C@@H](C)O [C10/TVTFKF, CH3—(CH2)8—CO-TVTFKF] (Decanoyl-TVTFKF-OH; C-terminus assumed)
IC50 [1, 5]: ~35 µM
Increase of the inhibitory capacity compared with the unmodified peptide (factor) [1]: 6.5
Inhibitory effect of the lipopeptides on the CT-L activity [1]: 42%

CH3—(CH2)14—CO-TITFDY [C16/TITFDY]
Inhibitory effect of the lipopeptides on the CT-L activity [1]: 20%
fa CT-L activity [3]: 3

TITFDY [reference compound]
fa CT-L activity [3]: 5
fa T-L activity [4]: 3

CH3—(CH2)16—CO-TITFDY [C18/TITFDY]
Inhibitory effect of the lipopeptides on the CT-L activity [1]: 34%
fa CT-L activity [3]: 6
fa T-L activity [4]: 1.2

TVTFKF [TVTFKF, reference compound]
Mechanism of inhibition (kinetic analysis, V0/Vi versus inhibitor concentration) ([1]; activated 20S proteasome): parabolic kinetics
IC50 [1, 5]: 229 µM
fa CT-L activity [3]: 2.3
fa T-L activity [4]: 1.7
IC50 [2]: 210 µM

TITYEY [reference compound]
fa CT-L activity [3]: 2

Ac-TNL-ψ[CH2—NH]-GPS [Pseudopeptide 2]
Effectiveness relative to pseudopeptide 1 ([1]; activated 20S proteasome): half as effective as 1
Inhibition of the post-acid activity PA ([2]; inhibitor 1 mM): 28%

CH3—(CH2)16—CO-TVTYKF
fa CT-L activity [3]: 3.2

CC(C)C[C@@H](CNCC(=O)N1CCC[C@H]1C(=O)N[C@@H](CO)C(=O)O)NC(=O)[C@H](CC(N)=O)NC(=O)[C@@H](N)[C@@H](C)O [Pseudopeptide 1, TNL-ψ[CH2—NH]-GPS]
Mechanism of inhibition (kinetic analysis, V0/Vi versus inhibitor concentration) ([1]; activated 20S proteasome): reacts with the catalytic sites and the regulatory site(s)
IC50 ([1]; estimated values, activity type not named at the place, peptide tested under conditions where its hydrolysis is negligible, read-out: IC50 (activated 20S proteasome inhibitor)): 380 µM
inhibition at 500 µM ([2]; inhibitor 500 μM): 63%

TITYDF
fa T-L activity [4]: 2.5

CC(C)[C@H](NC(=O)[C@@H](NC(=O)CCCCNC(=O)CCCC[C@@H]1SC[C@@H]2NC(=O)N[C@@H]21)[C@@H](C)O)C(=O)N[C@H](C(=O)N[C@@H](Cc1ccc(C(=O)c2ccccc2)cc1)C(=O)N[C@@H](CCCCN)C(=O)N[C@@H](Cc1ccccc1)C(=O)O)[C@@H](C)O [Pseudopeptide 3, Biot-Ava-TVT-Bpa-KF] ({Biotin-Ava}-TVT[Bpa]KF-OH; C-terminus assumed)
IC50 ([1]; enzyme form and activity not stated at the place, read-out: IC50): 32 µM
